Values after ≈ are worked out from the molar mass of the structure shown. Read-outs that look alike come from different tables or passages of the source.
Tests used:
[1] = test system: incorporation of [1-14C] acetate into membrane fatty acids in S. aureus; assay: [14C] acetate incorporation into membrane fatty acids in S. aureus; assay type: cell-based, Staphylococcus aureus; settings: for IC50: Staphylococcus aureus, read-out: IC50 [14C] acetate incorporation; for Inhibition of acetate incorporation relative to the less active compounds 1, 3, and 4: [1-14C] acetate into membrane fatty acids in S. aureus
Protocol: To monitor the effects of compound 1 on lipid, DNA, RNA, protein, and cell wall biosynthesis, its effects on the incorporation of [1-^14C] acetate (50 mCi/mmol), [2-^14C] thymidine (59.8 mCi/mmol), [U-^14C] uridine (539 mCi/mmol), L-[U-^14C] leucine (306 mCi/mmol) or L-[U-^14C] isoleucine (329 mCi/mmol), and N-acetyl-D-[1-^14C] glucosamine (58.1 mCi/mmol) into S. aureus and S. pneumoniae were measured as described previously. S. aureus was exponentially grown to an A650 of 0.2 in Mueller–Hinton broth. S. pneumoniae was grown in tryptic soy broth supplemented with 5% sheep blood. […] An equal volume of DMSO solvent was added to the untreated control. After incubation with the radiolabeled precursors at 37°C for 1 h, followed by centrifugation, the cell pellets were washed twice with PBS buffer. After acetate incorporation, the total cellular lipids were extracted with chloroform-methanol-water. The incorporated radioactivity in the chloroform phase was measured by scintillation counting. For the other precursors, incorporation was terminated by adding 10% (w/v) TCA and cooling on ice for 20 min. The precipitated material was collected on Whatman GF/C glass microfiber filters, washed with TCA and ethanol, dried, and counted using a scintillation counter. […] In all experiments, known antibacterial agents were included as positive controls.
We measured their effects on the incorporation of [1-^14C] acetate into membrane fatty acids in S. aureus.

[2] = test system: S. aureus RN4220 (pE194-fabI); assay: Overexpression assay, MIC for fabI-overexpressing S. aureus RN4220 (pE194-fabI); assay type: cell-based; settings: Staphylococcus aureus, read-out: MIC S. aureus (pE194-fabI)
Protocol: (§1) Whole-cell antimicrobial activity was determined by broth microdilution as described previously. The test strains except for S. pneumoniae were grown to mid-log phase in Mueller–Hinton broth and diluted 1,000-fold in the same medium. Cells (10^5/mL) were inoculated into Mueller–Hinton broth and dispensed at 0.2 mL/well into a 96-well microtiter plate. S. pneumoniae was grown in tryptic soy broth supplemented with 5% sheep blood. MICs were determined in triplicate by serial 2-fold dilutions of test compounds. […] Bacterial growth was determined by measuring the absorption at 650 nm by using a microtiter ELISA reader.
(§2) An overexpression assay using S. aureus RN4220, S. aureus RN4220 (pE194), and S. aureus RN4220 (pE194-fabI) was conducted to perform target validation of FabI inhibitors as described previously. Additionally, both fabI- and fabK-overexpressing E. coli were constructed to test a multitarget effect of the compounds. The wild-type fabI gene from the genomic DNA of E. coli W3110 was amplified by PCR by using the primers 5′-[…]-3′ and 5′-[…]-3′. The wild-type fabK gene from the genomic DNA of S. pneumoniae KCTC 5412 was amplified by PCR by using the primers 5′-[…]-3′ and 5′-[…] […]-3′. The resulting products were cloned into the pBAD-TOPO TA expression vector (Invitrogen, Carlsbad, CA, USA) to yield the pBAD-fabI and pBAD-fabK recombinant plasmids, which placed the expression of the genes fabI and fabK, respectively, under the control of the arabinose promoter. Recombinant pBAD-fabI and pBAD-fabK were then introduced into the pump-negative (tolC) E. coli EW1b via electroporation to generate E. coli EW1b (pBAD-fabI) and E. coli EW1b (pBAD-fabK), respectively.

[3] = test system: S. pneumoniae KCTC 3932; assay: MIC by broth microdilution, S. pneumoniae KCTC 3932; assay type: cell-based; settings: Streptococcus pneumoniae
Protocol: as §1

[4] = biological target: T1, S. aureus FabI (Staphylococcus aureus, UniProt Q6GI75); assay: S. aureus FabI enzyme assay (NADPH use at 340 nm, t-o-NAC thioester substrate); assay type: biochemical
T1 construct: made in house
T1 sequence (Q6GI75 1-256): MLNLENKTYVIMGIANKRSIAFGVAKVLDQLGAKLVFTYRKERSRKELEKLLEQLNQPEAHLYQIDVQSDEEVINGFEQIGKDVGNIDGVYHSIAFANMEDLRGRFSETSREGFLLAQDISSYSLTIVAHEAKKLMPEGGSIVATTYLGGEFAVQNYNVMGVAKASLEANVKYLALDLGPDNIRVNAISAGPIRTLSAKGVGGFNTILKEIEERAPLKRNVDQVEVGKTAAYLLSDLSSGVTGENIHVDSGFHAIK
Source text: S. aureus FabI and E. coli FabI enzymes were cloned, overexpressed, and purified as described previously. The wild-type fabK gene was amplified by PCR from genomic DNA obtained from Streptococcus pneumoniae KCTC 5412 by using the primers 5′-[…]-3′ and 5′-[…]-3′, which contained NdeI and XhoI restriction sites, respectively. After the DNA sequence was confirmed, the gene was cloned into the pET22b vector (Novagen, Gibbstown, NJ, USA). The construct was transformed into E. coli BL21 (DE3) for expression following induction with isopropylthiogalactoside. The C-terminal His-tagged protein was purified as described previously. Assays were conducted in half-area, 96-well microtiter plates. The compounds were dissolved in DMSO and evaluated in 100-μL assay mixtures containing components specific for each enzyme (see below). Reduction of the trans-2-octenoyl N-acetylcysteamine (t-o-NAC thioester) substrate analog was measured spectrophotometrically following the utilization of NADH or NADPH at 340 nm at 30°C for the linear period of the assay. S. aureus FabI assays contained 50 mM sodium acetate (pH 6.5), 200 μM t-o-NAC thioester, 200 μM NADPH, and 150 nM S. aureus FabI.
NADH was used as a cofactor rather than NADPH for the E. coli FabI assay. Substrate concentrations used for the Lineweaver–Burk plot were 100, 200, 300, and 400 μM, whereas the concentrations of the cofactor were 100, 200, 400, and 600 μM. The rate of decrease in the amount of NADPH in each reaction was measured with a microtiter enzyme-linked immunosorbent assay (ELISA) reader by using the SOFTmax PRO software (Molecular Devices, Sunnyvale, CA, USA). The inhibitory activity was calculated according to the following formula: % of inhibition = 100× [1− (rate in the presence of compound/rate in the untreated control)]. IC50 values were calculated by fitting the data to a sigmoid equation. An equal volume of DMSO solvent was used for the untreated control. FabK assays contained 100 mM sodium acetate (pH 6.5), 2% glycerol, 200 mM NH4Cl, 50 µM t-o-NAC thioester, 200 µM NADH, and 150 nM S. pneumoniae FabK.

[5] = test system: S. aureus RN4220 (pE194); assay: Overexpression assay, MIC for vector-containing S. aureus RN4220 (pE194); assay type: cell-based; settings: Staphylococcus aureus, read-out: MIC S. aureus (pE194)
Protocol: as §1, §2

[6] = test system: E. coli EW1b(pBAD); assay: Overexpression assay, MIC for vector-containing E. coli EW1b (pBAD); assay type: cell-based; settings: Escherichia coli
Protocol: as §1, §2

[7] = KCTC3932, S. pneumoniae KCTC 3932, read-out: MIC S. pneumoniae
[8] = S. aureus FabI, read-out: IC50 saFabI
[9] = read-out: MIC E. coli EW1b(pBAD) (+) Ara
[10] = read-out: MIC E. coli EW1b(pBAD) (−) Ara
[11] = KCTC3932, read-out: MIC S. pneumoniae
[12] = with respect to trans-2-octenoyl N-acetylcysteamine

C=CC(C)(C)C12C=C(OC)C(=O)N3/C(=C/c4cnc[nH]4)C(=O)NC31N(OC)c1ccccc12 (centres unmarked) [Compound 3, oxaline]
IC50 [1]: 33.5 µM
MIC [2]: 256 µg/mL (≈ 572 µM)
MIC [3, 7]: 64 µg/mL (≈ 143 µM)
IC50 [4]: 38.7 µM
MIC [5]: 64 µg/mL (≈ 143 µM)

C=CC(C)(C)C12C=C(OC)C(=O)N3/C(=C/c4cnc[nH]4)C(=O)N(C)C31N(OC)c1ccccc12 (centres unmarked) [Compound 5, O,N^14-dimethylmeleagrin]
IC50 [1]: 16.3 µM
Inhibition of acetate incorporation relative to the less active compounds 1, 3, and 4 [1]: approximately 2 fold
MIC [2]: 128 µg/mL (≈ 277 µM)
MIC [3, 7]: 16 µg/mL (≈ 34.7 µM)
IC50 [4, 8]: 13.5 µM
MIC [5]: 16 µg/mL (≈ 34.7 µM)
MIC [6, 9]: 16 µg/mL (≈ 34.7 µM)
MIC [6, 10]: 16 µg/mL (≈ 34.7 µM)

Oc1cc(Cl)ccc1Oc1ccc(Cl)cc1Cl [Triclosan, reference compound]
IC50 [1]: 0.04 µM
MIC [2]: 1.6 µg/mL (≈ 5.53 µM)
MIC [3, 11]: 64 µg/mL (≈ 221 µM)
MIC [5]: 0.01 µg/mL (≈ 0.0345 µM)
MIC [6, 9]: 0.002 µg/mL (≈ 0.00691 µM)
MIC [6, 10]: 0.002 µg/mL (≈ 0.00691 µM)

C=CC(C)(C)C12C=C(OC)C(=O)N3/C(=C/c4cnc[nH]4)C(=O)N(C)C31Nc1ccccc12 (centres unmarked) [Compound 6, O,N^14-dimethylglandicolin]
IC50 [1]: 19.8 µM
Inhibition of acetate incorporation relative to the less active compounds 1, 3, and 4 [1]: approximately 2 fold
MIC [2]: 128 µg/mL (≈ 297 µM)
MIC [3, 11]: 16 µg/mL (≈ 37.1 µM)
IC50 [4]: 13.1 µM
MIC [5]: 16 µg/mL (≈ 37.1 µM)

C=CC(C)(C)C12C=C(O)C(=O)N3/C(=C/c4cnc[nH]4)C(=O)NC31Nc1c(Br)cccc12 (centres unmarked) [Compound 7]
IC50 [1]: > 200 µM
MIC [3, 7]: > 128 µg/mL
IC50 [4, 8]: > 200 µM

C=CC(C)(C)C12C=C(O)C(=O)N3/C(=C/c4cnc[nH]4)C(=O)NC31N(OC)c1ccccc12 (centres unmarked) [Compound 1, meleagrin]
IC50 [1]: 40.3 µM
MIC [2]: 256 µg/mL (≈ 591 µM)
MIC [3, 11]: 64 µg/mL (≈ 148 µM)
IC50 [4]: 40.1 µM
Ki ([4]; with respect to NADPH): 32.3 µM
Ki [4, 12]: 39.8 µM
Mode of FabI inhibition ([4]; with respect to NADPH): mixed inhibition
Mode of FabI inhibition [4, 12]: mixed
MIC [5]: 64 µg/mL (≈ 148 µM)
MIC [6, 9]: 32 µg/mL (≈ 73.8 µM)
MIC [6, 10]: 32 µg/mL (≈ 73.8 µM)

C=CC(C)(C)C12C=C(O)C(=O)N3/C(=C/c4cnc[nH]4)C(=O)N(C)C31N(OC)c1ccccc12 (centres unmarked) [Compound 4, N^14-methylmeleagrin]
IC50 [1]: 35.7 µM
MIC [2]: 256 µg/mL (≈ 572 µM)
MIC [3, 11]: 64 µg/mL (≈ 143 µM)
IC50 [4]: 48 µM
MIC [5]: 64 µg/mL (≈ 143 µM)
